How the values were obtained:
eNOS [1] = test: Western blotting of eNOS expression in rat carvenosus strip, acute hypoxia; assay type: cell-based; set-up: unit not given here
VEGF [2] = test: Western blotting of VEGF expression in isolated rat pulmonary artery ring, short-term (acute) hypoxia; assay type: cell-based
Description: (§1) In our in vitro short-term experiment, isolated rat pulmonary artery was grown under normoxia (20% O2) or hypoxia (1% O2) at 37° C. for 24 hrs as was previously done (Wu BN, et al. Int J Immunopathol Pharmacol 24:925, 2011). The heart weight and body weight ratio (HW/BW) of the rats treated with one of SPAAX-1, SPAAX-1 RX complex, Sildenafil or Sildenafil RX complex each measured on the 21st hypoxic day. All animal care and the experimental protocols of this study were approved by the Animal Care and Use Committee of the Kaohsiung Medical University. Male Wistar rats (200-250 g), provided by the National Laboratory Animal Breeding and Research Center (Taipei, Taiwan), were housed under constant temperature and controlled illumination. Food and water were available ad libitum.
(§2) Whole right lung tissues of hypoxia-treated and untreated rats were isolated and cut into small strips and placed into an extraction buffer (Tris 10 mM, pH 7.0, NaCl 140 mM, PMSF 2 mM, DTT 5 mM, NP-40 0.5%, pepstatin A 0.05 mM and leupeptin 0.2 mM) for protein extraction, and then centrifuged at 12,500 g for 30 min. To measure the expression levels of the proteins, the total proteins were extracted and Western blotting analysis was performed as described previously (Bivalacqua T J, et al., 2013, TJ PLoSONE 8: e68028. doi:10.1371/journal. pone.0068028). Briefly, the protein extract was boiled to a ratio of 4:1 with a sample buffer (Tris 100 mM, pH 6.8, glycerol 20%, SDS 4% and bromophenol blue 0.2%). Electrophoresis was performed using 10% SDS-polyacrylamide gel (2 hr, 100 V, 40 mA, […] protein per lane). Separated proteins were transferred to PVDF membranes treated with 5% fat-free milk powder to block the nonspecific IgGs (90 min, 100 V) and incubated for one hour with a specific protein antibody. The blot was then incubated with anti-mouse or anti-goat IgG linked to alkaline phosphatase (1:1000) for 1 hr. Immunoreactive bands were visualized using horseradish peroxidase-conjugated secondary antibodies and subsequent electrochemiluminescence (ECL) detection (GE Healthcare Bio-Sciences Corp., Piscataway, N.J., U.S.A.). Mouse or rabbit monoclonal antibody of eNOS (Upstate, N.Y., U.S.A.), sGCα (Sigma-Adrich, CA, U.S.A., sGCβ (Santa Cruz, Calif., U.S.A.), PDE-5A (BD Tansduction, San Jose, Calif., U.S.A.), PKG (Calbiochem, San Diego, Calif., U.S.A.) ROCKII (Upstate, N.Y., U.S.A.), RhoA (Santa Cruze, Calif., U.S.A.) and the loading control protein β-actin (Sigma-Adrich, MO, U.S.A.) were used in our Western blot analysis.
(§3) The Western blotting analysis measurements were performed as per lung tissue.

VEGF [3] = test: Western blotting of VEGF expression in rat carvenosus strip, acute hypoxia; assay type: cell-based; set-up: unit not given here
eNOS [4] = test: Western blotting of eNOS expression in isolated rat pulmonary artery ring, short-term (acute) hypoxia or normoxia; assay type: cell-based; conditions: for eNOS expression, Pulmonary Artery Ring: acute hypoxia, Normoxia 100, Hypoxia 65.3 ± 7.8
Description: as §1, §2, §3

ROCK II [5] = test: Western blotting of ROCK II expression in isolated rat pulmonary artery ring, short-term (acute) hypoxia or normoxia; assay type: cell-based; conditions: for ROCK II expression, Pulmonary Artery Ring: acute hypoxia, Normoxia 100, Hypoxia 560 ± 21
Description: as §1, §2, §3

ROCK II [6] = test: Cigarette smoking-induced Rho/ROCK activation of rat pulmonary artery ring; assay type: in vivo; conditions: Intraperitoneal (100 mg/kg) 1 h prior to smoke exposure, Non-Smoking control 100, Smoking 530 ± 34
Description: Intraperitoneal SAA complex (100 mg/kg in 200 μl of the solution) or 200 μl of saline (control) were given to animals through intraperitoneal injection 1 h prior to smoke exposure.
as §2

ROCK II [7] = test: as above; assay type: in vivo; conditions: Nebulization (2.5 mM), Non-Smoking control 100, Smoking 540 ± 28
[8] = Normoxia 100, Hypoxia 62.4 ± 5.5
[9] = normoxia for 24 hrs, 10 μm, versus non-treated controls

Molecule	eNOS expression, Carvenosus (eNOS [1]; [8])	VEGF expression, Pulmonary Artery Ring (VEGF [2]; Normoxia 100, Hypoxia 175 ± 14)	VEGF expression, Carvenosus (VEGF [3]; Normoxia 100, Hypoxia 170 ± 15)	eNOS expression, Pulmonary Artery Ring (eNOS [4])	ROCK II expression, Pulmonary Artery Ring (ROCK II [5])	further results
CCCCCCCC/C=C\CCCCCCCC(=O)O.COc1ccccc1N1CCN(CCn2cnc3c2c(=O)n(C)c(=O)n3C)CC1 [Example 7, 7-[2-[4-(2-methoxyphenyl)piperazinyl]ethyl]-1,3-dimethylxanthine oleate complex]	122 ± 4.9	91 ± 6.5	84 ± 8.8	180 ± 7.6	190 ± 7.7	
Cn1c(=O)c2c(ncn2CCN2CCN(c3ccc([N+](=O)[O-])cc3)CC2)n(C)c1=O.O=C1O[C@H]([C@@H](O)CO)C(O)=C1O [Example 8, 7-[2-[4-(4-nitrophenyl)piperazinyl]ethyl]-1,3-dimethyl-xanthine ascorbate complex]	45 ± 4.2	122 ± 16	116 ± 12	80 ± 3.2	150 ± 14	
CCCc1nn(C)c2c(=O)[nH]c(-c3cc(S(=O)(=O)N4CCN(C)CC4)ccc3OCC)nc12.O=C1OC(C(O)CO)C(O)=C1O [Reagent 1002, Sildenafil DL-ascorbate complex]						eNOS expression, Carvenosus (eNOS [1]; Normoxia 100, Hypoxia 62.4 ± 5.5, listed as 1002): 125 ± 5.4; VEGF expression, Pulmonary Artery Ring (VEGF [2]; Normoxia 100, Hypoxia 175 ± 14, listed as 1002): 90 ± 5.8; VEGF expression, Carvenosus (VEGF [3]; Normoxia 100, Hypoxia 170 ± 15, listed as 1002): 90 ± 7.9; eNOS expression, Pulmonary Artery Ring (eNOS [4]; listed as 1002): 130 ± 6.4; ROCK II expression, Pulmonary Artery Ring (ROCK II [5]; listed as 1002): 211 ± 12.5
CCCc1nn(C)c2c(=O)[nH]c(-c3cc(S(=O)(=O)N4CCN(C)CC4)ccc3OCC)nc12.Cl [Reagent 1003, Sildenafil HCl complex]	110 ± 5.2	94 ± 9.8	105 ± 16	116 ± 7.2		ROCK II of pulmonary artery ring (ROCK II [6]): 82 ± 7.6; ROCK II of pulmonary artery ring (ROCK II [7]): 62 ± 4.8
CCCc1nn(C)c2c(=O)[nH]c(-c3cc(S(=O)(=O)N4CCN(C)CC4)ccc3OCC)nc12.O=C(O)C=CC(=O)O [Reagent 1008, Sildenafil maleate complex]	45 ± 4.2					VEGF expression, Carvenosus (VEGF [3]; Normoxia 100, Hypoxia 170 ± 15, listed as 1008): 116 ± 12; ROCK II expression, Pulmonary Artery Ring (ROCK II [5]; listed as 1008): 150 ± 14
CCCc1nn(C)c2c(=O)[nH]c(-c3cc(S(=O)(=O)N4CCN(C)CC4)ccc3OCC)nc12.O=C(O)CC(O)C(=O)O [Reagent 1009, Sildenafil malate complex]			118 ± 18		120 ± 12	
CCCc1nn(C)c2c(=O)[nH]c(-c3cc(S(=O)(=O)N4CCN(C)CC4)ccc3OCC)nc12.O=C(O)C=CC(=O)O [Reagent 1010, Sildenafil fumarate complex]						VEGF expression, Carvenosus (VEGF [3]; Normoxia 100, Hypoxia 170 ± 15, listed as 1010): 117 ± 17; ROCK II expression, Pulmonary Artery Ring (ROCK II [5]; listed as 1010): 125 ± 13
CC(O)C(=O)O.CCCc1nn(C)c2c(=O)[nH]c(-c3cc(S(=O)(=O)N4CCN(C)CC4)ccc3OCC)nc12 [Reagent 1011, Sildenafil lactate complex]	46 ± 4.7	133 ± 17	118 ± 16	75 ± 13	310 ± 21	
CC(=O)O.CCCc1nn(C)c2c(=O)[nH]c(-c3cc(S(=O)(=O)N4CCN(C)CC4)ccc3OCC)nc12 [Reagent 1012, Sildenafil acetate complex]				70 ± 13	270 ± 27	
CCCCCCCCC=CCCCCCCCC(=O)O.CCCc1nn(C)c2c(=O)[nH]c(-c3cc(S(=O)(=O)N4CCN(C)CC4)ccc3OCC)nc12 [Reagent 1013, Sildenafil oleate complex]				104 ± 18		
CCCc1nn(C)c2c(=O)[nH]c(-c3cc(S(=O)(=O)N4CCN(C)CC4)ccc3OCC)nc12.O=C(O)C(=O)O [Reagent 1015, Sildenafil oxalate complex]	65 ± 4.7			68 ± 15	395 ± 27	
CCCc1nn(C)c2c(=O)[nH]c(-c3cc(S(=O)(=O)N4CCN(C)CC4)ccc3OCC)nc12.O=C(O)c1ccccc1O [Reagent 1016, Sildenafil-Salicylate complex]	110 ± 4.7	90 ± 5.2	90 ± 7.5	165 ± 16	178 ± 19	
C[C@@H](N)[C@H]1CC[C@H](C(=O)Nc2ccncc2)CC1 [Reagent Y27632, Y27632, reference compound]						eNOS in isolated hypoxic pulmonary artery (eNOS [4]; hypoxia for 24 hrs, versus control level in normoxia, hypoxia 60±8.3%): 50±4.7%; expression of eNOS in isolated pulmonary artery ring (eNOS [4]; [9]): 114.1±12.3%; expression of ROCK II in isolated hypoxic pulmonary artery (ROCK II [5]; hypoxia for 24 hrs, versus control level in normoxia, hypoxia 180±10.2%): 150±13.1%; Expression of ROCK II in isolated pulmonary artery ring (ROCK II [5]; [9]): 67.5±14.8%
Sildenafil Arginate complex [Reagent 1017]	124 ± 11	90 ± 6.4	90 ± 8.2	180 ± 12	182 ± 21	

Reference: patent US20150306107A1, “SAA Derivative Compound Restores eNOS And Inhibits Oxidative Stress-Induced A Diseases In Hypoxia” (JANSFAT BIOTECHNOLOGY CO., LTD., priority 2014, published 2015)
